What was measured:
[1] = system: C. difficile; assay: Bacterial count in cecal contents at D2 post-infection
[2] = system: C. difficile wild-type strain R20291 infection; assay: Clinical manifestations in the mouse model of CDI
[3] = system: IκB-α (NF-κB pathway); assay: IκB-α Western blot of cecal lysates (NF-κB pathway activation); assay type: in vivo, C57BL/6 mice; settings: infected, mimic-treated mice, D2 post-infection
[4] = system: C. difficile wild-type strain R20291 infection
[5] = system: miR-27a-5p expression in Caco-2 cells; assay: miR-27a-5p expression (qRT-PCR) in Caco-2 cells pretreated with NF-κB and MAPK pathway inhibitors, then incubated with FliC or C. difficile R20291; settings: 20 μM added 1 h before FliC or strain R20291
[6] = mice infected with WT R20291, mimic 3 x 50 μg IV, D1 post-infection
[7] = mice infected with WT R20291, mimic 3 x 50 μg IV, D2 post-infection
[8] = uninfected mice (negative control) treated with mimic, D1
[9] = uninfected mice (negative control) treated with mimic, D2

miR-27a-mimic: Synthetic double-stranded RNA mimic by Riboxx (SEQ ID NO: 2/3, M-00303-0200 CONmiR Mimic in vivo), given IV mixed with in vivo-jetPEI (chain 1 AGGGCUUAGCUGCUUGUGACCCCC; chain 2 GGGGGUCACAAGCAGCUAAGCCCU; formulated with in vivo-jetPEI, further chemistry not given here)
bacterial count in the cecal contents ([1]; WT-infected, mimic-treated mice): 3.7 × 10^9 CFU/g
rate of intestinal colonization compared with untreated WT-infected mice ([1]; cecal contents): quite equivalent
Bristly hair D1 (animals affected/group) [2, 6]: 0/10
Reduced activity D1 (animals affected/group) [2, 6]: 0/10
Bristly hair D2 (animals affected/group) [2, 7]: 0/10
Reduced activity D2 (animals affected/group) [2, 7]: 1/10
Diarrhea D1 (animals affected/group) ([2]; mice infected with WT R20291, mimic/in vivo-jetPEI 3 x 50 μg IV, D1 post-infection): 0/10
Diarrhea D2 (animals affected/group) ([2]; mice infected with WT R20291, mimic/in vivo-jetPEI 3 x 50 μg IV, D2 post-infection): 3/10
Diarrhea D2 (animals affected/group) ([2]; mice infected with WT R20291, mimic/in vivo-jetPEI 3 x 50 μg IV, D2 post-infection, listed as miR27-a-mimic): 3 out of 10
clinical and pathological manifestations caused by the bacteria ([2]; mouse model of CDI, mimic administered intravenously): significantly reduces
Diarrhea D1 (animals affected/group) ([2]; uninfected mice (negative control) treated with mimic 3 x 50 μg IV, D1): 0/9
Diarrhea D2 (animals affected/group) ([2]; uninfected mice (negative control) treated with mimic 3 x 50 μg IV, D2): 0/9
Bristly hair D1 (animals affected/group) [2, 8]: 0/9
Reduced activity D1 (animals affected/group) [2, 8]: 0/9
Bristly hair D2 (animals affected/group) [2, 9]: 0/9
Reduced activity D2 (animals affected/group) [2, 9]: 0/9
IκB-α in the cecum (NF-κB pathway activation) [3]: no activation of IκB-α was detected
mice with a cecum with little or no evidence of inflammation and normal, mucus-free cecal contents ([4]; infected, mimic-treated group, D2 post-infection): 6 of 10
inflammatory appearance of the cecum ([4]; infected, mimic-treated mice, D2 post-infection, macroscopic): largely attenuated
inflammation score of the 3 treated mice that showed diarrhea at D2 ([4]; infected, mimic-treated, D2 post-infection): high inflammation score comparable to infected and untreated mice
efficacy rate ([4]; mouse model of infection, 3 of 10 treated mice affected): 70%
histological inflammation score (Table 3) ([4]; mouse, in vivo): 0
histologic score of inflammation (Table 3) ([4]; the infected, mimic-treated mice with little or no inflammation, D2, untreated infected mice 6 to 9): less than 6

Cc1ccc2nc(NCCN)c3ncc(C)n3c2c1 [BMS 345541]
inhibition of miR-27a-5p expression [5]: roughly 40 fold

Reference: US12447172B2, “Use of the miR-27a-5p microRNA for treating Clostridium difficile-induced bowel inflammation” (priority 2018, dated 2025)
